Values quoted from earlier work, collected in patent US20210008096A1, “SUPPRESSION OR REDUCTION OF THE PAT[…] VIRULENCE OF A C[…]” (Da Volterra, priority 2015, published 2021).

Tested on: Clostridium difficile
Details: following treatment of CDAD; 15% vs 25%

CCc1c(Cl)c(O)c(Cl)c(O)c1C(=O)O[C@H]1[C@H](O)[C@H](OC)[C@H](OC/C2=C\C=C\C[C@H](O)/C(C)=C/[C@H](CC)[C@@H](O[C@@H]3OC(C)(C)[C@@H](OC(=O)C(C)C)[C@H](O)[C@@H]3O)/C(C)=C/C(C)=C/C[C@@H]([C@@H](C)O)OC2=O)O[C@@H]1C [fidaxomycin, fidaxomicin]
rate of recurrence: 15%
